Experimental data reported in patent publication US9086390B2, “Dabigatran etexilate and related substances, processes and compositions, and use of the substances as reference standards and markers” (Medichem, S.A., priority 2011, dated 2015).
Where a name gives a salt, the structure may show the parent alone.

experiment: Accelerated stability study of dabigatran etexilate mesylate (impurity contents by HPLC method 1); assay type: physicochemical; settings: content of the named impurity in dabigatran etexilate mesylate of Example 6 after storage in a double polyethylene bag at 40° C. and 75% relative humidity for 3 months; HPLC method 1; area % with respect to dabigatran etexilate
Experimental: The chromatographic separation was carried out in a Kromasil 100-5C18, 5 μm, 4.6×250 mm column at 25° C. The mobile phase was prepared by filtering and degassing an acetonitrile/buffer solution (45:55) v/v mixture. The buffer solution was obtained by preparing a 50 mM formic acid solution in water and adjusting the pH to 3.8 with ammonium hydroxide. The chromatograph was equipped with a 254 nm detector and the flow rate was 1.0 mL per minute. 20 μL of the test samples were injected. The samples were prepared by dissolving the appropriate amount of sample in mobile phase, to obtain a concentration of about 1.0 mg/mL. The chromatogram was run for at least 30 min. […] Impurity contents are expressed in area % with respect to dabigatran etexilate.

Compound | Compound/Impurity contents (area %) Example 7 [area %]
CCOC(=O)c1ccc2c(c1)nc(CNc1ccc(C(=N)N)cc1)n2C [Compound (A1), ethyl 2-{[(4-{carbamimidoyl}phenyl)amino]methyl}-1-methyl-1H-benzimidazol-5-carboxylate] | 0.38
CCCCCCOC(=O)/N=C(/N)c1ccc(NCc2nc3cc(C(=O)OCC)ccc3n2C)cc1 [Compound (A2), ethyl 2-{[(4-{[(hexyloxy)carbonyl]carbamimidoyl}phenyl)amino]methyl}-1-methyl-1H-benzimidazol-5-carboxylate] | 0.42
CCCCCCOC(=O)NC(=O)c1ccc(NCc2nc3cc(C(=O)N(CCC(=O)O)c4ccccn4)ccc3n2C)cc1 [Compound (B1), 3-{[(2-{[(4-{[({hexyloxy}carbonyl)amino]carbonyl}phenyl)amino]methyl}-1-methyl-1H-benzimidazol-5-yl)carbonyl](pyridin-2-yl)amino}propanoic acid] | 3.8
CCCCCCOC(=O)NC(=O)c1ccc(NCc2nc3cc(C(=O)N(CCC(=O)OC)c4ccccn4)ccc3n2C)cc1 [Compound (B2), methyl 3-{[(2-{[(4-{[({hexyloxy}carbonyl)amino]carbonyl}phenyl)amino]methyl}-1-methyl-1H-benzimidazol-5-yl)carbonyl](pyridin-2-yl)amino}propanoate] | 0.25
CCCCCCOC(=O)NC(=O)c1ccc(NCc2nc3cc(C(=O)N(CCC(=O)OCC)c4ccccn4)ccc3n2C)cc1 [Compound (B3), ethyl 3-{[(2-{[(4-{[({hexyloxy}carbonyl)amino]carbonyl}phenyl)amino]methyl}-1-methyl-1H-benzimidazol-5-yl)carbonyl](pyridin-2-yl)amino}propanoate] | 7.62
CCCCCCOC(=O)/N=C(/N)c1ccc(NCc2nc3cc(C(=O)N(CCC(N)=O)c4ccccn4)ccc3n2C)cc1 [Compound (B4), 3-{[(2-{[(4-{[(hexyloxy)carbonyl]carbamimidoyl}phenyl)amino]methyl}-1-methyl-1H-benzimidazol-5-yl)carbonyl](pyridin-2-yl)amino}propanamide] | 0.71
Cn1c(CNc2ccc(C(=N)N)cc2)nc2cc(C(=O)N(CCC(=O)O)c3ccccn3)ccc21 [Compound (C1), 3-{[(2-{[(4-{carbamimidoyl}phenyl)amino]methyl}-1-methyl-1H-benzimidazol-5-yl)carbonyl](pyridin-2-yl)amino}propanoic acid, reference compound] | 1.64
CCCCCCOC(=O)/N=C(/N)c1ccc(NCc2nc3cc(C(=O)N(CCC(=O)O)c4ccccn4)ccc3n2C)cc1 [Compound (C2), 3-{[(2-{[(4-{[(hexyloxy)carbonyl]carbamimidoyl}phenyl)amino]methyl}-1-methyl-1H-benzimidazol-5-yl)carbonyl](pyridin-2-yl)amino}propanoic acid] | 1.57
CCCCCCOC(=O)/N=C(/N)c1ccc(NCc2nc3cc(C(=O)N(CCC(=O)OC)c4ccccn4)ccc3n2C)cc1 [Compound (C3), methyl 3-{[(2-{[(4-{[(hexyloxy)carbonyl]carbamimidoyl}phenyl)amino]methyl}-1-methyl-1H-benzimidazol-5-yl)carbonyl](pyridin-2-yl)amino}propanoate] | 0.32
CCCCCCOC(=O)/N=C(/N)c1ccc(N)cc1 [Compound (D), 4-{[(hexyloxy)carbonyl]carbamimidoyl}aniline] | 0.18

same assay, conditions: on storage, 40° C. and 75% relative humidity, moisture

Compound | main hydrolysis product on storage
CCCCCCOC(=O)NC(=N)c1ccc(NCc2nc3cc(C(=O)N(CCC(=O)OCC)c4ccccn4)ccc3n2C)cc1 [dabigatran etexilate mesylate, reference compound] | a compound of formula (B), especially compound (B3)

experiment: not given; settings: cited from earlier work

Compound | main hydrolysis product in vivo
CCCCCCOC(=O)NC(=N)c1ccc(NCc2nc3cc(C(=O)N(CCC(=O)OCC)c4ccccn4)ccc3n2C)cc1 [dabigatran etexilate mesylate, reference compound] | a compound of formula (D1), namely dabigatran
